Data published in article PMC12809504, “Polo-like kinase 1–inhibitor co-complex structures via the surface-entropy reduction approach and a DARPin-assisted approach” (Acta Crystallographica Section D: Structural Biology, 2025).

Experiments:
[1] = target: T1, Polo-like kinase 1 (PLK1) (Homo sapiens, UniProt P53350); test: TR-FRET kinase-activity assay, […] ATP; assay type: biochemical; parameters: kinase domain, residues 33–345, PLK1^WT
[2] = target: T1, Polo-like kinase 1 (PLK1); test: (soak, […] Å); IC50 by TR-FRET kinase assay at […] ATP; assay type: biochemical; parameters: kinase domain, residues 33–345 (Ala33–Lys345), PLK1^WT; with DARPin 3H10 (crystal structure only)

T1 sequence (P53350 33-345): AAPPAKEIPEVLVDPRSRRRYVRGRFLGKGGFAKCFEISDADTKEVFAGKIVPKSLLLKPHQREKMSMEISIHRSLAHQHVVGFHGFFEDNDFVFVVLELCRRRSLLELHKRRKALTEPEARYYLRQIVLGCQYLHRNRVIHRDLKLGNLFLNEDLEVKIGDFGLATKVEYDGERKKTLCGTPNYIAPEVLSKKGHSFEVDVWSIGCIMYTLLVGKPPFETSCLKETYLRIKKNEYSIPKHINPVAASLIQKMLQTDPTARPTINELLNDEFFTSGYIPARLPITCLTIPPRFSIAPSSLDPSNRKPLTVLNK

Row | IC50 [1] | SMILES | IC50 [2]
1 | 178 ± 52.6 nM | CCn1c(=C(C#N)C(=O)NCC(F)(F)F)sc(=CNc2cccc(CCN3CCCC3)c2)c1=O [ZK-Thiazolidinone] | 
2 |  | CCn1c(=O)c(=CNc2ccnc(N(C)C3CCN(C)CC3)c2)s/c1=C(/C#N)C(=O)NCC(F)(F)F [compound 1, (2Z)-2-cyano-2-{3-ethyl-5-[({2-[methyl(1-methylpiperidin-4-yl)amino]pyridin-4-yl}amino)methylidene]-4-oxo-1,3-thiazolidin-2-ylidene}-N-(2,2,2-trifluoroethyl)acetamide] | 3.6 ± 2.3 nM
